Measurements published in patent US20250064990A1, “METHODS OF SCREENING FOR VMAT2 INHIBITORS” (Neurocrine Biosciences, Inc., priority 2021, published 2025).
Like-named read-outs stand apart in the source and are kept apart here.

Biological target: VMAT2 (Macaca fascicularis, UniProt A0A2K5UVB8)
Experiment: VMAT2 occupancy in NHP brain after i.v. NBI-750142, [^18F]AV-133 PET
Type: in vivo, cynomolgus monkeys (Macaca fascicularis)
Details: for receptor occupancy at 0.084 mg/kg / receptor occupancy at 0.52 mg/kg / receptor occupancy at 0.026 mg/kg / receptor occupancy at 0.26 mg/kg / receptor occupancy at 0.78 mg/kg: cynomolgus monkey
Text: The aim of this study was to assess the relationship between NBI-750142 dose/plasma concentration and VMAT2 occupancy with [^18F]AV-133 using PET in non-human primate (NIP) brain. A radioligand, [^18F]AV-133, has been used to image and quantify brain VMAT2 in vivo.
Three non-naïve cynomolgus monkeys (Macaca fascicularis) were used in this study. The animals were judged to be in good health before the start of the study. At study origination the animals were 7 (female, EC865), 8 (male, GC786) and 9 (female, LC206) years old and weighed 4.2, 7.0, and 5.4 kg, respectively.
The animals were imaged with [^18F]AV-133 at baseline with vehicle (0.9% saline) and post NBI-750142 blockade on separate days. Vehicle and NBI-750142 were administered as an intravenous (i.v.) bolus followed by a constant infusion over 3 hours. [^18F]AV-133 was injected as an i.v. bolus, 1 h after administration of vehicle/NBI-750142. The design study is summarized below Table 2-1.
Dynamic data were acquired in the MicroPET Focus-220 camera (Siemens Microsystems, Knoxville, TN). Emission data were collected for 120 min post-injection and reconstructed into a series of 33 frames and all standard corrections were applied: normalization, random, scatter and attenuation. Dynamic brain PET images were transferred and analyzed using the image processing PMOD software package v3.802 (PMOD Technologies, Zurich, Switzerland). The PET images were rigidly aligned to a previously acquired animal's brain T1 MRI and then spatially normalized to a common cynomolgus MRI template for anatomical brain region definition.
Volumes of interest (VOIs) defined in the cynomolgus template space (see e.g., Ballanger et al. Neuroimage, 2013, 7:26-43) were applied to the spatially normalized PET images to compute time-activity curves (TACs, kBq/cm^3) for caudate (0.96 cm^3), putamen (1.34 cm^3) and cerebellum (3.81 cm^3). TACs and images (averaged between 60-120 min) were presented in Standard Uptake Value (SUV) units (g/mL) normalized by the weight of the animal and the injected dose.
Non-invasive Logan graphical analysis (start time of fit, t*=35 min) was used to estimate regional non-displaceable binding potential (BPND) using the TACs in the caudate and putamen, with the cerebellar cortex as the reference TAC. BPND was calculated in the in the caudate and putamen across baseline and NBI-750142 scans. Target occupancy was calculated according to Equation 1-1.
where h is the Hill slope (h=1.0) and C is the mean of observed plasma concentrations during the scanning interval (60 to 180 minutes post-dose).

Chain of VMAT2 (A0A2K5UVB8 entry or part of it): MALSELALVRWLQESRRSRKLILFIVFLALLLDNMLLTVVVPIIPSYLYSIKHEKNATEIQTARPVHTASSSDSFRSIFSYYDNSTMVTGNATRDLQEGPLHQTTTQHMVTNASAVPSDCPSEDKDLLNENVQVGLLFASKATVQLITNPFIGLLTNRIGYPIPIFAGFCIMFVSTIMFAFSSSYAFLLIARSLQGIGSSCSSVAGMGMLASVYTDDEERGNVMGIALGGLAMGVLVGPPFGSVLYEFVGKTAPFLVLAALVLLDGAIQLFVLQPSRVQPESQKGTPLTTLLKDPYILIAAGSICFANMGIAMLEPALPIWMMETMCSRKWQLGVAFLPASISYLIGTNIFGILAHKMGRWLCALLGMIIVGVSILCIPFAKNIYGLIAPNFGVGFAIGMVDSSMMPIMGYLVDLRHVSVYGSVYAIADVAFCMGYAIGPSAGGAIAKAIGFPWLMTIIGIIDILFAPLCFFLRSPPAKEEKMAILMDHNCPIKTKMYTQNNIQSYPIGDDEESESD

Structure (SMILES): COc1cc2c(cc1OC)[C@H]1CN(C)[C@H](CC(C)(C)C)CN1CC2 [NBI-750142]
- [^18F]AV-133 BPND (animal EC865, Caudate, NBI-750142 0.084 mg/kg): 2.39
- [^18F]AV-133 BPND (animal EC865, Caudate, NBI-750142 0.52 mg/kg): 1.01
- [^18F]AV-133 BPND (animal EC865, Putamen, NBI-750142 0.084 mg/kg): 3.10
- [^18F]AV-133 BPND (animal EC865, Putamen, NBI-750142 0.52 mg/kg): 1.18
- [^18F]AV-133 BPND (animal GC786, Caudate, NBI-750142 0.026 mg/kg): 3.10
- [^18F]AV-133 BPND (animal GC786, Caudate, NBI-750142 0.26 mg/kg): 2.22
- [^18F]AV-133 BPND (animal GC786, Caudate, NBI-750142 0.78 mg/kg): 0.33
- [^18F]AV-133 BPND (animal GC786, Putamen, NBI-750142 0.026 mg/kg): 3.53
- [^18F]AV-133 BPND (animal GC786, Putamen, NBI-750142 0.26 mg/kg): 2.39
- [^18F]AV-133 BPND (animal GC786, Putamen, NBI-750142 0.78 mg/kg): 0.43
- [^18F]AV-133 BPND (animal LC206, Caudate, NBI-750142 0.26 mg/kg): 1.42
- [^18F]AV-133 BPND (animal LC206, Putamen, NBI-750142 0.26 mg/kg): 1.61
- [^18F]AV-133 binding post administration of NBI-750142 (caudate and putamen vs baseline): dose-dependent decrease
- receptor occupancy at 0.084 mg/kg (iv, read-out: % Occ, animal EC865, Caudate, 0.084 mg/kg): 38.7%
- receptor occupancy at 0.52 mg/kg (iv, read-out: % Occ, animal EC865, Caudate, 0.52 mg/kg): 74.2%
- receptor occupancy at 0.084 mg/kg (iv, read-out: % Occ, animal EC865, Putamen, 0.084 mg/kg): 40.9%
- receptor occupancy at 0.52 mg/kg (iv, read-out: % Occ, animal EC865, Putamen, 0.52 mg/kg): 77.5%
- receptor occupancy at 0.026 mg/kg (iv, read-out: % Occ, animal GC786, Caudate, 0.026 mg/kg): 31.1%
- receptor occupancy at 0.26 mg/kg (iv, read-out: % Occ, animal GC786, Caudate, 0.26 mg/kg): 50.8%
- receptor occupancy at 0.78 mg/kg (iv, read-out: % Occ, animal GC786, Caudate, 0.78 mg/kg): 92.7%
- receptor occupancy at 0.026 mg/kg (iv, read-out: % Occ, animal GC786, Putamen, 0.026 mg/kg): 25.8%
- receptor occupancy at 0.26 mg/kg (iv, read-out: % Occ, animal GC786, Putamen, 0.26 mg/kg): 49.7%
- receptor occupancy at 0.78 mg/kg (iv, read-out: % Occ, animal GC786, Putamen, 0.78 mg/kg): 90.9%
- receptor occupancy at 0.26 mg/kg (iv, read-out: % Occ, animal LC206, Caudate, 0.26 mg/kg): 64.5%
- receptor occupancy at 0.26 mg/kg (iv, read-out: % Occ, animal LC206, Putamen, 0.26 mg/kg): 63.7%
- receptor occupancy at 0.084 mg/kg (read-out: Target Occupancy, Mean of Putamen and Caudate, EC865, 0.084 mg/kg): 40%
- receptor occupancy at 0.52 mg/kg (read-out: Target Occupancy, Mean of Putamen and Caudate, EC865, 0.52 mg/kg): 76%
- receptor occupancy at 0.026 mg/kg (read-out: Target Occupancy, Mean of Putamen and Caudate, GC786, 0.026 mg/kg): 28%
- receptor occupancy at 0.26 mg/kg (read-out: Target Occupancy, Mean of Putamen and Caudate, GC786, 0.26 mg/kg): 50%
- receptor occupancy at 0.78 mg/kg (read-out: Target Occupancy, Mean of Putamen and Caudate, GC786, 0.78 mg/kg): 92%
- receptor occupancy at 0.26 mg/kg (read-out: Target Occupancy, Mean of Putamen and Caudate, LC206, 0.26 mg/kg): 64%
- 50% effective total concentration (EC50) of plasma NBI-750142 for VMAT2 occupancy (striatum, Emax model, Hill slope 1, cynomolgus monkey PET): 0.011 µg/mL
